# Where two headings read alike, the source gives them in different places.
# How the values were obtained:
# Format in all cases: cell-based, human
# [1] = system: MCF-7 breast cancer cells; test: MTT proliferation assay, MCF-7; details: MCF-7 cells
# Procedure: (§1) 1-3. Viability and proliferation. Human breast cancer cell lines were seeded into 96-well plates (5000 cells/well) and treated for 24 hours with various concentrations of SMR peptides including PEG-SMRwt-Clu, PEG-SMRwt and PEG-SMRmut to determine IC50 (inhibition concentration). Cell proliferation was determined using the MTT assay (Molecular Devices, Sunnyvale, Calif.). Control experiments were performed with MTT treated cells alone and untreated cells, and on this basis, the incubation times of 24 hr and 48 hr were used for an MTT assay of peptide-treated cells (Stockerta JC. et al., 2012 and Riss TL. et al., 2015).
# (§2) 7-4. Cell proliferation and cytotoxicity assay. Human breast cancer cell lines MCF-7, MDAMB-231, and leukemia K562 cells, and non-tumorigenic MCF-10A cells are seeded into 96-well plates (5000 cells/well) and treated for 24 hours with 0-1120 nM SMRwt-CPP or SMRmut-CPP (FIG. 10). Cell proliferation was determined using the MTT [3-(4,5-dimethylthiazol-2-yl)-2,5-diphenyltetrazolium bromide] dye assay by SpectraMax M5 Fluorescence Plate Reader (Molecular Devices. Sunnyvale, Calif.). Cell viability was estimated by the conversion of yellow MTT by mitochondrial dehydrogenases of living cells to purple formazon (MTT assay). Control experiments were performed with cells treated or untreated with MTT, and on this basis, an incubation time of 24 hours was used for MTT assays of peptide-treated cells (Huang, M. B., et al., Oncotarget, 2017. 8(7): pp. 11302-11315.). Statistical significance of results was determined from three independent experiments including triplet or quadruplet sets in each experiment.
# [2] = system: MDA-MB-231 breast cancer cells; test: MTT proliferation assay, MDA-MB-231; details: MDA-MB-231 cells
# Procedure: as §1, §2
# [3] = system: MDA-MB-231 breast cancer cells; test: Exosome release by acetylcholinesterase (AchE) assay, MDA-MB-231; details: MDA-MB-231 cells, five-day treatment
# Procedure: (§3) 1-6. Exosome isolation and purification. Exosomes were isolated from breast cancer cells by differential centrifugation as previously described (Ali SA. et al., 2010). Untreated tumor cells were used as a control. Briefly, the above treated and untreated cell culture supernatants were centrifuged at 400×g for 10 minutes. The supernatants were transferred to a clear tube and centrifuged at 10,000×g for 30 minutes. The supernatants from the second spin were ultracentrifuged at 200,000×g for 2 hours to pellet exosomes. Finally, the exosome pellets were re-suspended with PBS and stored at 4° C. until used for analysis.
# (§4) 1-7. Exosome characterization by acetylcholinesterase (AchE) assay. Purified exosomes were quantitated by measurement of AchE as described (Ellman et al., 1961). Briefly, a 100 mM dithibionitrobenzoic (DTNB) solution was prepared for use as a stock color indicator, and a 28.9 mg/mL acetylthiocholine iodide in PBS solution was prepared as a stock substrate. The stock substrate stock can be stored at −20° C. up to one month, while the color indicator can be stored at 4° C. for two weeks. A working solution was prepared by mixing 10 mL of PBS with 200 μL of Substrate and 500 μl of DTNB. 50 μL of each exosome sample was transferred to 96 well microtitre plates, and a standard curve was prepared using AchE from 0.98 mU/mL to 2000 mU/mL. After 50 μL of standards were added into separate wells, 200 μL of the working solution was added to all wells. After 20 min incubation, AchE activity was measured at 450 nm using a SpectroMax M5 fluorimeter.
# (§5) 7-5. Exosome isolation and purification. Exosomes were isolated from breast cancer cells and leukemia cells using the ExoQuick-TC Exosome Precipitation Kit (System Biosciencences [SBI], Mountain View Calif.) or the miRCURY Exosome Isolation Kit (EXIQON, Woburn, Mass.) according to the manufacturer's instructions. Untreated tumor cells were used as a control. Briefly, treated and untreated cell culture supernatants (10 mL) were centrifuged at 3000×g for 15 minutes. The resulting supernatants were transferred to a clear tube, 2 mL of ExoQuick-TC buffer was added, mixed and incubated overnight at 4° C. Following the incubation, the sample contents were centrifuged at 1500×g for 30 minutes, the supernatants were aspirated off, the pellets were centrifuged at 1500×g for 5 minutes and any further traces of supernatant were removed (SBI). Alternatively, treated and untreated cell culture supernatants were centrifuged at 10,000×g for 5 minutes to remove cell debris, supernatants (10 ml) were transferred into new tubes, and 4 mL of precipitation buffer (EXIQON) was added, and the contents were mixed and incubated at 4° C. overnight. Following the incubation, the sample contents were centrifuged at 10,000×g for 30 minutes (EXIQON). Exosome-containing pellets were re-suspended in PBS and stored at 4° C. or −80° C.
# (§6) 7-6. Exosome characterization by acetylcholinesterase (AchE) assay. Purified exosomes were quantitated by measurement of AchE as previously described (Huang et al., Oncotarget, 2017. 8(7): pp. 11302-11315). Briefly, 100 mM dithibionitrobenzoic (DTNB) was prepared as a stock color indicator, and prepared a stock substrate containing 28.9 mg/mL of acetylthiocholine iodide in PBS. Substrate stock can be stored at −20° C. up to one month; the stock color indicator can be stored at 4° C. for two weeks. A working solution was prepared by mixing 10 mL of PBS with 200 μL of substrate and 500 μl of DTNB. 50 μL of each exosome sample was transferred to a 96 well microtitre plate, and a standard curve for AchE concentrations was prepared using AchE from 0.98 mU/mL to 2000 mU/mL. After 50 μL of standards were added into separate wells, 200 μL of the working solution was added to each well. After a 20 min incubation, AchE activity was measured at 450 nm using a SpectroMax M5 fluorometer (FIG. 11).
# [4] = system: MCF-7 breast cancer cells; test: Exosome release by acetylcholinesterase (AchE) assay, MCF-7; details: MCF-7 cells, five-day treatment
# Procedure: as §3, §4, §5, §6
# [5] = system: exosomes from MCF-7 cells; test: Western blot of exosomal proteins (Alix, vimentin, mortalin), MCF-7; details: 48 hr treatment, vs negative controls
# Procedure: (§7) 7-7. Protein analysis by Western blotting. Exosomes were isolated from cell culture supernatants as described above. Protein concentrations were determined by measuring absorbance at 280 nm (Nanodrop 2000). Cultured cells were treated with PEG-SMR-Clu, SMR-CPP peptides, MKT-077, Omeprazole or DMA at 37° C. for 48 hr. To evaluate mortalin, vimentin and exosome expression, Western blot analysis was performed using anti-mortalin (Grp-75), anti-Vimentin and anti-Alix antibodies, respectively (FIG. 12).
# (§8) Exosomes and cell lysates were prepared by incubating 5-10 min at 95° C. in sample buffer. The lysates were subjected to SDS-PAGE under reducing conditions (150 mM DTT) in 4-20% Criterion™ TGX™ precast gels (BioRad, Hercules, Calif.) and then transferred onto a nitrocellulose membrane (Bio-Rad, Hercules, Calif.). Nitrocellulose membranes were blocked with 5% skim milk (MedSupply, Atlanta, Ga.) in TBS containing 0.05% Tween 20 (TBST) for 1 h at room temperature. The membranes were treated with anti-mortalin (Grp-75) mAb or anti-α-tubulin mAb for cell lysates (FIG. 15, Panels A and B) or with anti-Alix and anti-vimentin or anti-mortalin for exosomes (FIG. 12), followed by peroxidase-conjugated goat anti-mouse IgG. Bands were developed with an ECL chemiluminescent substrate (Santa Cruz Biotechnology, Santa Cruz, Calif.) and exposed to an ImageQuant LAS 4000 imaging system (GE Healthcare, Piscataway, N.J. 08854).
# MDA-MB-231 exosomes = test: Western blot of exosomal proteins (Alix, vimentin, mortalin), MDA-MB-231; details: MDA-MB-231 cells, 48 hr treatment
# Procedure: as §7, §8
# MCF-7 cells = test: TUNEL apoptosis assay, MCF-7; details: 48 hours, MKT-077 500 nM/mL, DMA 300 μM/mL, Omeprazole 200 μM/mL, paclitaxel 1.6 uM/mL, cisplatin 2 mg/mL
# Procedure: (§9) 7-8. Apoptosis assay by flow cytometry. For assessment of apoptosis, MCF-7 and MDA-MB-231 breast cancer cells and were seeded into 6-well plates at 4×10^5 cells per well and treated for 48 hours with 925 nM/mL of MKT-077 on MDA-MB-231 cells, 500 nM/mL of MKT-077 on MCF-7 cells, 337.5 nM/mL of MKT-077 on K562 cells, 300 μM/mL of DMA, 200 μM/mL of Omeprazole, 1.6 uM/mL of paclitaxel, 2 mg/mL of cisplatin, or combined treatment with either paclitaxel or cisplatin in combination with each of the three mortalin inhibitors. Apoptosis was determined using the TUNEL detection kit (Nexcelom, MA) and GUAVA easyCyte HT (EMD Millipore Corporation, Temecula, Calif.) system for fluorometric detection. (FIG. 13).
# K562 cells = test: TUNEL apoptosis assay, K562; details: 48 hours, MKT-077 337.5 nM/mL, DMA 300 μM/mL, Omeprazole 200 μM/mL, paclitaxel 1.6 uM/mL, cisplatin 2 mg/mL
# Procedure: as §9
# K562 exosomes = test: Western blot of exosomal proteins (Alix, vimentin, mortalin), K562; details: K562 cells, 48 hr treatment
# Procedure: as §7, §8
# MDA-MB-231 cells = test: TUNEL apoptosis assay, MDA-MB-231; details: 48 hours, MKT-077 925 nM/mL, DMA 300 μM/mL, Omeprazole 200 μM/mL, paclitaxel 1.6 uM/mL, cisplatin 2 mg/mL
# Procedure: as §9
# [6] = 24 hours, MTT, read-out: 50% inhibition of cell growth
# [7] = 24 hours, read-out: SMR at IC50 concentration
Molecule,average AChE concentration day 1 to 5 [3] [mU/mL],average AChE concentration days 1 to 5 [4] [mU/mL],Alix expression in exosomes [5],Mortalin expression in exosomes [5],Vimentin expression in exosomes [5],Vimentin expression in exosomes (MDA-MB-231 exosomes),apoptosis (TUNEL) (MCF-7 cells) [%],apoptosis (TUNEL) (K562 cells) [%],Alix expression in exosomes (K562 exosomes),Mortalin expression in exosomes (K562 exosomes),Vimentin expression in exosomes (K562 exosomes),apoptosis (TUNEL) (MDA-MB-231 cells) [%],further results
"CC(=O)O[C@H]1C(=O)[C@@]2(C)[C@H]([C@H](OC(=O)c3ccccc3)[C@]3(O)C[C@H](OC(=O)[C@H](O)[C@@H](NC(=O)c4ccccc4)c4ccccc4)C(C)=C1C3(C)C)[C@]1(OC(C)=O)CO[C@@H]1C[C@@H]2O [paclitaxel, reference compound]",–,–,–,–,–,–,–,–,–,–,–,–,"IC50 ([1]; Homo sapiens, MCF7, data not shown, read-out: experimentally determined IC50 dosage): 1600 nM; IC50 ([2]; Homo sapiens, data not shown, read-out: experimentally determined IC50 dosage): 1600 nM"
"COc1ccc2[nH]c([S+]([O-])Cc3ncc(C)c(OC)c3C)nc2c1 (stereo not shown) [Omeprazole, 5-Methoxy-2-[[(4-methoxy-3,5-dimethyl-2-pyridinyl)methyl]sulfinyl]-1H-benzimidazole]",25,26,not accompanied by significant reductions,no significant changes,significantly decreased,no significant change,1.1,6.1,significantly decreased,significantly decreased,significantly,3.0,Mortalin expression in exosomes (MDA-MB-231 exosomes): No significant change
"N.N.[Cl][Pt][Cl] [cisplatin, reference compound]",–,–,–,–,–,–,–,–,–,–,–,–,experimentally determined IC50 dosage ([1]; data not shown): 3000 µg/mL; experimentally determined IC50 dosage ([2]; data not shown): 2000 µg/mL
"CN(C)c1nc(N)c(C(=O)NC(=N)N)nc1Cl [DMA, 5-(N,N-Dimethyl)amiloride]",37,26,not accompanied by significant reductions,no significant changes,significantly decreased,significantly decreased,11.83,15.2,significantly decreased,significantly decreased,significantly,30.43,–
SMRmut-CPP (AGFPVAAAGFPVGRKKRRQRRRPPQ) [SEQ ID NO: 41],–,–,–,–,–,–,–,–,–,–,–,–,"AChE initial increase on day 1 ([3]; day 1, mock 146.52): 141.47 mU/mL; AchE concentration on day 3 ([4]; day 3, mock 69.15): 66.05 mU/mL; AchE concentration, initial increase ([4]; days 1 and/or 2, mock 155.13): 150.06 mU/mL"
"CCn1c(=Cc2cccc[n+]2CC)sc(=C2Sc3ccccc3N2C)c1=O.[Cl-] [MKT-077, 1-Ethyl-2-[[3-ethyl-5-(3-methyl-2(3H)-benzothiazolylidene)-4-oxo-2-thiazolidinylidene]methyl]-pyridinium chloride]",29,22,significantly decreased,significantly decreased,significantly decreased,no significant change,90.1,82.7,significantly decreased,significantly decreased,significantly,52.13,Mortalin expression in exosomes (MDA-MB-231 exosomes): No significant change
NXNVGFPVAAVGFPV (SEQ ID NO: 36) [PEG-SMRwt],–,–,–,–,–,–,–,–,–,–,–,–,"IC50 [1, 6]: 280 nM; IC50 [1, 7]: 280 nM; IC50 [2, 6]: 420 nM; IC50 [2, 7]: 420 nM"
